Laboratory results taken from patent publication US7601702B2, “Dutpase Inhibitors” (Medivir AB, priority 2004, dated 2009).
In brackets after ≈: the same amount, converted by molar mass.

Experiments:
Assay type in all cases: cell-based
[1] = tested on: Leishmania donovani strain MHOM/ET/67/L82; assay: Leishmaniasis macrophage in vitro screening model; conditions: amastigotes in murine macrophages, n=4
Experimental: The Leishmania donovani strain MHOM/ET/67/L82 obtained from Dr. S. Croft, London) is used. The strain is maintained in the Syrian Golden hamster. Amastigotes are collected from the spleen of an infected hamster Amastigotes are grown in axenic culture at 37° C. in SM medium (Cunningham I., J. […] Primary peritoneal macrophages from NMRI mice are collected 1 day after a macrophage production stimulation with an i.p injection of 2 ml of a 2% potato starch suspension (FLUKA, Switzerland) All cultures and assays are done at 37° C. under an atmosphere of 5% CO2 in air. […] After use the stocks are kept at -20° C. For the assays, the compound is further diluted in serum-free culture medium and finally to the appropriate concentration in complete medium. Assays are performed in sterile 16-well chamber slides (LabTek, Nalgene/Nunc Int.) To each well 100 μl of a murine macrophage suspension (4×10^5/ml) in RPMI 1640 (containing bicarbonate and HEPES) supplemented with 10% heat inactivated fetal bovine serum is added. […] Infected and non-infected macrophages are counted for the control cultures and the ones exposed to the serial drug dilutions. The infection rates are determined. The results are expressed as % reduction in parasite burden compared to control wells, and the IC50 calculated by linear regression analysis. […]

[2] = tested on: Leishmania donovani strain MHOM/ET/67/L82; assay: Leishmania donovani axenic amastigote assay; conditions: axenic amastigotes
T. b. brucei STIB 950 = assay: Trypanosoma brucei whole cell assay, secondary screen STIB 950; conditions: STIB950
[3] = tested on: Trypanosoma brucei rhodesiense STIB 900; assay: Trypanosoma brucei whole cell assay, primary screen; conditions: read-out: ICo
Experimental: The bloodstream form trypomastigotes of the strains a and c are maintained in MEM medium with Earle's salts supplemented with 25 mM HEPES, 1 g/l additional glucose, 1% MEM nonessential amino acids (100×), 0.2 mM 2-mercaptoethanol, 2 mM Na-pyruvate, 0.1 mM hypoxanthine and 15% heat inactivated horse serum.
All cultures and assays are conducted at 37° C. under an atmosphere of 5% CO2 in air.
After use the stocks are kept at −20° C. For the assays, the compound is further diluted to the appropriate concentration using complete medium.
Assays are performed in 96-well microtiter plates, each well containing 100 μl of culture medium with 8×10^3 bloodstream forms with or without a serial drug dilution. The highest concentration for the test compounds is 90 μg/ml. Seven 3-fold dilutions are used covering a range from 90 μg/ml to 0.123 μg/ml. Each drug is tested in duplicate and each assay is repeated at least once. […]
10 μl of Alamar Blue (12.5 mg resazurin dissolved in 100 ml distilled water) are now added to each well and the plates incubated for another 2 hours. Then the plates are read with a Spectramax Gemini XS microplate fluorometer (Molecular Devices Cooperation, Sunnyvale, Calif., USA) using an excitation wave length of 536 nm and an emission wave length of 588 nm. Data are analysed using the microplate reader software Softmax Pro (Molecular Devices Cooperation, Sunnyvale, Calif., USA). […]

[4] = tested on: Trypanosoma brucei gambiense STIB 930; assay: Trypanosoma brucei whole cell assay, secondary screen STIB 930
Experimental: The bloodstream form trypomastigotes of strain b are maintained in MEM medium with Earle's salts supplemented with 25 mM HEPES, 1 g/l additional glucose, 1% MEM non-essential aminoacids (100×), 0.2 mM 2-mercaptoethanol, 2 mM Na-pyruvate, 0.1 mM hypoxanthine, 0.05 mM bathocuproine disulphonic acid, 0.15 mM L-cysteine and 15% heat inactivated pooled human serum.
Assays are performed in 96-well microtiter plates, each well containing 100 μl of culture medium with 8×10^3 bloodstream forms with or without a serial drug dilution. The highest concentration for the test compounds is 90 μg/ml. Seven 3-fold dilutions are used covering a range from 90 μg/ml to 0.123 μg/ml. […]

Row | IC50 [1] | IC50 [2] | Structure (SMILES) | IC50 (T. b. brucei STIB 950) | IC50 [3] | IC50 [4]
1 | 325 ng/mL (≈ 0.797 µM) | 120 ng/mL (≈ 0.294 µM) | CCCCCCCCCCCCCCCCOP(=O)([O-])OCC[N+](C)(C)C [Miltefosine] |  |  | 
2 |  |  | Nc1nc(N)nc(Nc2ccc([As]3SCC(CO)S3)cc2)n1 (centres unmarked) [melarsoprol] | 2.8 ng/mL | 1.6 ng/mL | 4.2 ng/mL
